Measurements as given in patent publication US9924723B2 (THE REGENTS OF THE UNIVERSITY OF COLORADO, A BODY CORPORATE, priority 2013, dated 2018).

Key:
[1] = Leaching of metal from metal-carbon formulation in liquid media (total metal concentration); format: physicochemical
[2] = Metal desorption from pre-loaded GAC in phosphate or citrate buffer solutions at various pH; format: physicochemical
Method: Phosphate or citrate buffering was used to stabilize pH. Points represent the mean of three observations. Error bars indicate standard deviation.
The metal leaching behavior of the GAC impregnated with Cd^2+ or CrO4^2− ions was determined using phosphate or citrate buffer solutions as described herein. […] This is consistent with studies that found cadmium and other metal cations sorbed to activated carbon most strongly at high pH. […] Also, chromate anions have increased sorption to activated carbon at low pH.
By delivering toxicity in the pH range where this transition between community types occurs, the metal-carbon formulations can prevent acidophile colonization. […] Cadmium cation sorption is more ideal for this corrosion prevention application because metal remains in solution as corrosion progresses to pH values below 6.

[3] = Cadmium and chromium in corrosion product and pore water of treated field specimens (ICP-MS), pore water pH; format: physicochemical; conditions: after 70 days, Experiment B
Method: Metal concentrations measured by inductively coupled plasma mass spectrometry (ICP-MS) of acid extracted samples.
Cadmium and chromium were measured in dry sieved corrosion products for the treated samples in Experiment B, and are presented both as ng/g dry sieved fines as well as μM in pore water (FIG. 9). These metals are typically present in Portland Cement at average concentrations of 0.34 ng/g Cd and 76 ng/g Cr. […] Aside from one chromium outlier at 71 days, metal concentrations in the dry fine material after 50 days stayed relatively constant between 400 and 800 ng/g.
Metal concentrations—micromolar levels of both cadmium and chomium—in pore water are also shown; these levels represent the concentrations which drive metal diffusion into bacterial cells on the corrosion front. Pore water concentrations increased to several μM after 70 days, and subsequently receded to less than 0.2 μM by the end of the experiment at 126 days (FIG. 9). This decrease is in pore water concentrations is due to a marked increase in surface moisture as the experiment progressed (up to 23% moisture), which diluted the released metal ions.

[4] = between pH 1 and pH 6; cited from earlier work
[5] = test system: Halothiobacillus neapolitanus strains; conditions: cited from earlier work
[6] = GAC impregnated with metal ions, phosphate or citrate buffer

Compound | Total metal concentration based on leaching experiments in media ([1]; pH 3) | Total metal concentration based on leaching experiments in media ([1]; pH 5) | pH below which desorption from GAC increases [2, 6] | Metal concentration in pore water [3] | Factor of increase of adsorption to activated carbon [4] | Sorption to GAC as function of pH [2, 6] | pH below which ions can resorb onto the carbon ([2]; pre-loaded GAC, buffered solutions) | Effect on thiosulfate oxidation [5]
[Cd] [cadmium] | 0.89 mM | 0.89 mM | below 6 | several | 10 |  |  | 
[O]=[Cr](=[O])([O-])[O-] [CrO4^−2] |  |  |  |  |  | sorb strongly at pH above 7 and pH below 5 | < 4 | inhibit
[Cr] [chromium] | 0.00456 mM | 0.000822 mM |  | several |  |  |  | 
